Laboratory results: patent publication US20040258620A1, “(Ethylene)-( propylene)-triaminepentaacetic acid derivatives, process for their production, and their use for the production of pharmaceutical agents” (priority 2001, published 2004)

Assays:
Assay type in all cases: physicochemical
[1] = Protonation constants of the ligands by pH-potentiometry; settings: protonation constant of the ligand; I=0.1M TMACI, t=25° C.
Excerpt: (§1) Protonation constants of the two ligands, DPTPA and EPTPA-Bz-NO2, and stability constants of their complexes formed with Gd(III) and some endogenously available cations have been determined by pH-potentiometry. The selectivity of the ligand for Gd(III) over Zn(II) (log(KGdL/KZnL)) is especially important as it directly relates to the safety of the Gd(III) contrast agent.

[2] = Stability constants of the complexes formed with Gd(III) by pH-potentiometry; settings: I=0.1M TMACI, t=25° C.
Excerpt: as §1

[3] = Stability constants of the complexes formed with Zn(II) by pH-potentiometry; settings: I=0.1M TMACI, t=25° C.
Excerpt: as §1

[4] = Stability constants of the Ca complexes by pH-potentiometry
Excerpt: as §1

[5] = 17O NMR on Gd(TRITA-bz-NO2)
Excerpt: The rate of water exchange, Kes, has been measured on Gd(TRITA-bz-NO2) by ^17O NMR. The numerical experimental data (reduced transverse and longitudinal ^17O relaxation rates, reduced chemical shifts) measured on a Gd(TRITA-bz-NO2) solution are shown in Table 6.

Row | pKa1 [1] | pKa2 [1] | pKa3 [1] | pKa4 [1] | pKa5 [1] | logKGdH2L [2] | logKGdHL [2] | logKGdL ([2]; stability constant) | logKZnH2L [3] | logKZnHL [3] | logKZnL ([3]; stability constant) | logKCaH2L [4] | logKCaHL [4] | logKCaL ([4]; stability constant) | A/ħ ([5]; from ^17O NMR data) | ER ([5]; from ^17O NMR data) [kJ/mol] | τR^298 ([5]; from ^17O NMR data) [ps] | SMILES | ΔH^x ([5]; from ^17O NMR data) [kJ/mol] | ΔS* ([5]; from ^17O NMR data) | kex^298 ([5]; water exchange rate from ^17O NMR data)
1 | 10.91 | 9.29 | 7.07 | 2.76 | 2.19 | 5.43 | 6.30 | 13.00 | 3.17 | 8.06 | 15.60 | 6.01 | 8.63 | 6.01 |  |  |  | O=C(O)CN(CCCN(CC(=O)O)CC(=O)O)CCCN(CC(=O)O)CC(=O)O [DPTPA] |  |  | 
2 |  |  |  |  |  |  |  |  |  |  |  |  |  |  | −3.7 10^6 rad s^−1 | 16.1 | 77 | O=C([O-])CN1CCN(CC(=O)[O-])CCN(CC(=O)[O-])CCN(CC(=O)[O-])CC1.[Gd+3] [Gd(DOTA)(H2O)^−, reference compound] | 49.8 | +10.5 Jmol^−1K^−1 | 4.1 10^6 s^−1
